Assay results: patent US12018059B2, “Human amylin analog polypeptides and methods of use” (Intarcia Therapeutics, Inc., priority 2018, dated 2024)
Starred links: 1 amine or outer side, 2 acyl side, 3 side chain; linkers in the order of their positions; H or OH if unused. Positions of bridges follow the written chain, without caps; N, C: chain ends. Non-standard residues stand in square brackets, D forms with d. Residues, ends and D or L forms follow the SMILES beside them. Groups on a side chain read outwards from the residue. *: point of attachment. C20 diacid = O=C(O)CCCCCCCCCCCCCCCCCCC(=O)*; C18 diacid = O=C(O)CCCCCCCCCCCCCCCCC(=O)*; C16 diacid = O=C(O)CCCCCCCCCCCCCCC(=O)*; γGlu = O=C(O)[C@H](CCC(=O)[*:2])N[*:1]; Palmitoyl = CCCCCCCCCCCCCCCC(=O)*

Test: in vivo
Parameters: species or system Sprague-Dawley rats
Details: male, Sprague-Dawley, rat, iv, 0.033 mg/kg
Experimental: Peptides were dissolved in sterile saline and administered as a 1-hour intravenous infusion to non-fasted male Sprague-Dawley rats (n=3 per group) via femoral vein cannula at a final dose of 0.033 mg/kg. […] Blood samples (approximately 250 μL) were collected for pharmacokinetic analysis via a jugular vein cannula at 0.25, 0.5, 0.75, 1, 1.17, 1.33, 1.5, 2, 4, 6, 8, 24, 30 and 48 hr post-start of infusion into microtainer tubes containing K2EDTA as anticoagulant and 25 μL of a protease inhibitor cocktail. Plasma was prepared by centrifugation and stored at −80° C. until analysis. The results of this analysis are shown in Table 9 and few exemplars in FIGS. 3a-3b. […]
A 60 μL aliquot of each plasma sample was placed into to a 96-well plate. To each well was added 6 μL of 0.5% Tween-20. Plates were then vortexed mixed for 10 minutes at 1200 rpm before 180 μL of 0.1% TFA in 2:1 ethanol:acetonitrile containing an appropriate internal standard was added to each well. Plates were vortex mixed for 5 min at 1300 rpm, and then centrifuged for 10 min at 2844×g. Supernatants (180 μL) were placed into a clean 96-well plate and evaporated under a nitrogen stream at 45° C. Residues were reconstituted in 80 μL of 20% acetonitrile (aq) containing 0.1% formic acid.
A […] aliquot of each plasma sample was diluted with […] of 10 mM ammonium acetate (pH 6.8) containing an appropriate internal standard and loaded onto an Oasis WCX microElution plate (Waters Corporation, Milford, MA) that had been pre-conditioned with […] of methanol and […] of deionized water. Samples were washed with […] of 5% ammonium hydroxide (aq) followed by […] of 20% acetonitrile in water. The analyte was eluted with […] of 5% formic acid in 75:25 acetonitrile:water. The eluent was dried under a nitrogen stream. Residues were reconstituted in 80 μL of 20% acetonitrile (aq) containing 0.1% formic acid.
All calibration standards were prepared in control rat plasma containing K2EDTA and protease inhibitor cocktail.
Samples and standards were analyzed by TurbolonSpray™ UPLC-MS/MS using a system consisting of a CTC HTS PAL auto-injector (Leap, Carrboro, NC), an Agilent Infinity 1290 system with column oven (Palo Alto, CA), a Valco switching valve (Houston, TX), and either an AB Sciex API 5600 TripleTOF™ or Sciex API 4000QTrap mass spectrometer (Framingham, MA). Samples were injected onto a 2.1×50 mm reverse phase C18 analytical column, typically a Waters CORTECS UPLC C18+, 1.6 μm (Waters Corporation, Milford, MA) or similar. […] Initial conditions consisted of 90% A and 10% B. The organic component was increased to 95% B over a period of 3-4 minutes, depending on the peptide. Typical flow rates were 600 μL/min. The column temperature was held constant at 40 or 50° C. Peptides were quantified by monitoring one or more product ions produced from a multiply charged parent ion.

Structure (SMILES) | Vd [L/kg] | clearance [mL/min/kg] | half-life [h]
CC[C@H](C)[C@H](NC(=O)[C@@H]1CCCN1C(=O)CNC(=O)[C@H](Cc1ccccc1)NC(=O)[C@H](CC(N)=O)NC(=O)[C@H](CC(N)=O)NC(=O)[C@H](CO)NC(=O)[C@H](CO)NC(=O)[C@H](CCCCN)NC(=O)[C@H](Cc1c[nH]cn1)NC(=O)[C@H](CCCCNC(=O)CCCCCCCCCCCCCCCCCCC(=O)O)NC(=O)[C@H](CCC(=O)O)NC(=O)[C@H](CC(N)=O)NC(=O)[C@H](C)NC(=O)[C@H](CC(C)C)NC(=O)[C@H](CCCNC(=N)N)NC(=O)[C@H](CCC(N)=O)NC(=O)[C@@H](NC(=O)[C@H](C)NC(=O)[C@@H]1CSSC[C@H](NC(=O)[C@@H](N)CO)C(=O)N[C@@H](CC(N)=O)C(=O)N[C@@H]([C@@H](C)O)C(=O)N[C@@H](CO)C(=O)N[C@@H]([C@@H](C)O)C(=O)N1)[C@@H](C)O)C(=O)N[C@@H](CC(C)C)C(=O)N1CCC[C@H]1C(=O)N1CCC[C@H]1C(=O)N[C@H](C(=O)N[C@@H](CCCCN)C(=O)N[C@H](C(=O)NCC(=O)N[C@@H](CO)C(=O)N[C@@H](CCC(=O)O)C(=O)N[C@H](C(=O)N[C@@H](Cc1ccc(O)cc1)C(N)=O)[C@@H](C)O)C(C)C)[C@@H](C)O [Compound A75] (H-SCNTSTCATQRLANEK(C20 diacid)HKSSNNFGPILPPTKVGSETY-NH2; disulfide 2-7; N-terminus assumed) | 0.121 | 0.0781 | 24.1
CC[C@H](C)[C@H](NC(=O)[C@@H]1CCCN1C(=O)CNC(=O)[C@H](Cc1ccccc1)NC(=O)[C@H](CC(N)=O)NC(=O)[C@H](CC(N)=O)NC(=O)[C@H](CO)NC(=O)[C@H](CO)NC(=O)[C@H](CCCCN)NC(=O)[C@H](Cc1c[nH]cn1)NC(=O)[C@H](CCCCNC(=O)CC[C@H](NC(=O)CCCCCCCCCCCCCCCCCCC(=O)O)C(=O)O)NC(=O)[C@H](CCC(=O)O)NC(=O)[C@H](CC(N)=O)NC(=O)[C@H](C)NC(=O)[C@H](CC(C)C)NC(=O)[C@H](CCCNC(=N)N)NC(=O)[C@H](CCC(N)=O)NC(=O)[C@@H](NC(=O)[C@H](C)NC(=O)[C@@H]1CSSC[C@H](NC(=O)[C@@H](N)CO)C(=O)N[C@@H](CC(N)=O)C(=O)N[C@@H]([C@@H](C)O)C(=O)N[C@@H](CO)C(=O)N[C@@H]([C@@H](C)O)C(=O)N1)[C@@H](C)O)C(=O)N[C@@H](CC(C)C)C(=O)N1CCC[C@H]1C(=O)N1CCC[C@H]1C(=O)N[C@H](C(=O)N[C@@H](CCCCN)C(=O)N[C@H](C(=O)NCC(=O)N[C@@H](CO)C(=O)N[C@@H](CCC(=O)O)C(=O)N[C@H](C(=O)N[C@@H](Cc1ccc(O)cc1)C(N)=O)[C@@H](C)O)C(C)C)[C@@H](C)O [Compound A73] (H-SCNTSTCATQRLANEK([γGlu-C20 diacid])HKSSNNFGPILPPTKVGSETY-NH2; disulfide 2-7; N-terminus assumed) | 0.0924 | 0.0449 | 26.6

Same assay, conditions: rat, iv, 0.033 mg/kg

Structure (SMILES) | Vd [L/kg] | clearance [mL/min/kg] | half-life [h]
CCCCCCCCCCCCCCCC(=O)N[C@@H](CCC(=O)NCCCC[C@@H](NC(=O)[C@H](CCC(=O)O)NC(=O)[C@H](CC(N)=O)NC(=O)[C@H](C)NC(=O)[C@H](CC(C)C)NC(=O)[C@H](CCCNC(=N)N)NC(=O)[C@H](CCC(N)=O)NC(=O)[C@@H](NC(=O)[C@H](C)NC(=O)[C@@H]1CSSC[C@H](NC(=O)[C@@H](N)CO)C(=O)N[C@@H](CC(N)=O)C(=O)N[C@@H]([C@@H](C)O)C(=O)N[C@@H](CO)C(=O)N[C@@H]([C@@H](C)O)C(=O)N1)[C@@H](C)O)C(=O)N[C@@H](Cc1c[nH]cn1)C(=O)N[C@@H](CCCCN)C(=O)N[C@@H](CO)C(=O)N[C@@H](CO)C(=O)N[C@@H](CC(N)=O)C(=O)N[C@@H](CC(N)=O)C(=O)N[C@@H](Cc1ccccc1)C(=O)NCC(=O)N1CCC[C@H]1C(=O)N[C@H](C(=O)N[C@@H](CC(C)C)C(=O)N1CCC[C@H]1C(=O)N1CCC[C@H]1C(=O)N[C@H](C(=O)N[C@@H](CCCCN)C(=O)N[C@H](C(=O)NCC(=O)N[C@@H](CO)C(=O)N[C@@H](CCC(=O)O)C(=O)N[C@H](C(=O)N[C@@H](Cc1ccc(O)cc1)C(N)=O)[C@@H](C)O)C(C)C)[C@@H](C)O)[C@@H](C)CC)C(=O)O [Compound A36] (H-SCNTSTCATQRLANE[dK]([γGlu-Palmitoyl])HKSSNNFGPILPPTKVGSETY-NH2; disulfide 2-7) | 0.244 | 3.93 | 1.32
CC[C@H](C)[C@H](NC(=O)[C@@H]1CCCN1C(=O)CNC(=O)[C@H](Cc1ccccc1)NC(=O)[C@H](CC(N)=O)NC(=O)[C@H](CC(N)=O)NC(=O)[C@H](CO)NC(=O)[C@H](CO)NC(=O)[C@H](CCCCN)NC(=O)[C@H](Cc1c[nH]cn1)NC(=O)[C@H](CC(C)C)NC(=O)[C@H](CCCCNC(=O)CCCCCCCCCCCCCCCCC(=O)O)NC(=O)[C@H](CC(N)=O)NC(=O)[C@H](C)NC(=O)[C@H](CC(C)C)NC(=O)[C@H](CCCNC(=N)N)NC(=O)[C@H](CCC(N)=O)NC(=O)[C@@H](NC(=O)[C@H](C)NC(=O)[C@@H]1CSSC[C@H](NC(=O)[C@@H](N)CO)C(=O)N[C@@H](CC(N)=O)C(=O)N[C@@H]([C@@H](C)O)C(=O)N[C@@H](CO)C(=O)N[C@@H]([C@@H](C)O)C(=O)N1)[C@@H](C)O)C(=O)N[C@@H](CC(C)C)C(=O)N1CCC[C@H]1C(=O)N1CCC[C@H]1C(=O)N[C@H](C(=O)N[C@@H](CCCCN)C(=O)N[C@H](C(=O)NCC(=O)N[C@@H](CO)C(=O)N[C@@H](CCC(=O)O)C(=O)N[C@H](C(=O)N[C@@H](Cc1ccc(O)cc1)C(N)=O)[C@@H](C)O)C(C)C)[C@@H](C)O [Compound A83] (H-SCNTSTCATQRLANK(C18 diacid)LHKSSNNFGPILPPTKVGSETY-NH2; disulfide 2-7) | 0.123 | 0.499 | 4.06
CCCCCCCCCCCCCCCC(=O)N[C@@H](CCC(=O)N[C@@H](CCC(=O)N[C@@H](CCC(=O)N[C@@H](CCC(=O)NCCCC[C@H](NC(=O)[C@H](CCC(=O)O)NC(=O)[C@H](CC(N)=O)NC(=O)[C@H](C)NC(=O)[C@H](CC(C)C)NC(=O)[C@H](CCCNC(=N)N)NC(=O)[C@H](CCC(N)=O)NC(=O)[C@@H](NC(=O)[C@H](C)NC(=O)[C@@H]1CSSC[C@H](NC(=O)[C@@H](N)CO)C(=O)N[C@@H](CC(N)=O)C(=O)N[C@@H]([C@@H](C)O)C(=O)N[C@@H](CO)C(=O)N[C@@H]([C@@H](C)O)C(=O)N1)[C@@H](C)O)C(=O)N[C@@H](Cc1c[nH]cn1)C(=O)N[C@@H](CCCCN)C(=O)N[C@@H](CO)C(=O)N[C@@H](CO)C(=O)N[C@@H](CC(N)=O)C(=O)N[C@@H](CC(N)=O)C(=O)N[C@@H](Cc1ccccc1)C(=O)NCC(=O)N1CCC[C@H]1C(=O)N[C@H](C(=O)N[C@@H](CC(C)C)C(=O)N1CCC[C@H]1C(=O)N1CCC[C@H]1C(=O)N[C@H](C(=O)N[C@@H](CCCCN)C(=O)N[C@H](C(=O)NCC(=O)N[C@@H](CO)C(=O)N[C@@H](CCC(=O)O)C(=O)N[C@H](C(=O)N[C@@H](Cc1ccc(O)cc1)C(N)=O)[C@@H](C)O)C(C)C)[C@@H](C)O)[C@@H](C)CC)C(=O)O)C(=O)O)C(=O)O)C(=O)O [Compound A21] (H-SCNTSTCATQRLANEK([γGlu-γGlu-γGlu-γGlu-Palmitoyl])HKSSNNFGPILPPTKVGSETY-NH2; disulfide 2-7) | 0.131 | 0.178 | 10.4
CC[C@H](C)[C@H](NC(=O)[C@@H]1CCCN1C(=O)CNC(=O)[C@H](Cc1ccccc1)NC(=O)[C@H](CC(N)=O)NC(=O)[C@H](CC(N)=O)NC(=O)[C@H](CO)NC(=O)[C@H](CO)NC(=O)[C@H](CCCCN)NC(=O)[C@H](Cc1c[nH]cn1)NC(=O)[C@H](CCCCNC(=O)CCCCCCCCCCCCCCC(=O)O)NC(=O)[C@H](CCC(=O)O)NC(=O)[C@H](CC(N)=O)NC(=O)[C@H](C)NC(=O)[C@H](CC(C)C)NC(=O)[C@H](CCCNC(=N)N)NC(=O)[C@H](CCC(N)=O)NC(=O)[C@@H](NC(=O)[C@H](C)NC(=O)[C@@H]1CSSC[C@H](NC(=O)[C@@H](N)CO)C(=O)N[C@@H](CC(N)=O)C(=O)N[C@@H]([C@@H](C)O)C(=O)N[C@@H](CO)C(=O)N[C@@H]([C@@H](C)O)C(=O)N1)[C@@H](C)O)C(=O)N[C@@H](CC(C)C)C(=O)N1CCC[C@H]1C(=O)N1CCC[C@H]1C(=O)N[C@H](C(=O)N[C@@H](CCCCN)C(=O)N[C@H](C(=O)NCC(=O)N[C@@H](CO)C(=O)N[C@@H](CCC(=O)O)C(=O)N[C@H](C(=O)N[C@@H](Cc1ccc(O)cc1)C(N)=O)[C@@H](C)O)C(C)C)[C@@H](C)O [Compound A86] (H-SCNTSTCATQRLANEK(C16 diacid)HKSSNNFGPILPPTKVGSETY-NH2; disulfide 2-7) | 0.0936 | 0.297 | 4.65
